Source: ChEMBL document CHEMBL5321223, “Effects and mechanism of action of Chrysanthemum morifolium (Jinsi Huangju) on hyperlipidemia and non-alcoholic fatty liver disease” (Eur J Med Chem, 2023)
The source made the active and inactive calls. The calls are words filed in the database; no cut-off is given here.

Columns and labels:
[1] = target: T1, Pancreatic triacylglycerol lipase (Homo sapiens) (UniProt P16233); test: Inhibition of Pancreatic lipase (unknown origin) using 4-methylumbelleallyl oleate as substrate at 50 uM by microplate reader assay
T1 sequence (whole entry): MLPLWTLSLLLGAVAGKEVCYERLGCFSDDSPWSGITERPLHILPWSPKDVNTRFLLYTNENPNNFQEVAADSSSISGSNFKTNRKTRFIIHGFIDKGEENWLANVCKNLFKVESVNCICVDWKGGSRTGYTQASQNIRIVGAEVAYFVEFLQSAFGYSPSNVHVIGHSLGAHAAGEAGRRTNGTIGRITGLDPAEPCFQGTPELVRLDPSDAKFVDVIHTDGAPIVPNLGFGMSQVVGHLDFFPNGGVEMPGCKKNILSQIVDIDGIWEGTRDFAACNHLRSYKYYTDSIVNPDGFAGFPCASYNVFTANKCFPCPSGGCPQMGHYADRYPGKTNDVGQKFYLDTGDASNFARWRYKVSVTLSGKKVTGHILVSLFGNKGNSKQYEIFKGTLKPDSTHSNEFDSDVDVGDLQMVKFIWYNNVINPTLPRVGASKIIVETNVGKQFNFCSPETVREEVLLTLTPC

HepG2 [2] = test: Cytotoxicity against human HepG2 cells assessed as reduction in cell survival at 50 uM; format: toxicity, cell-based; conditions: hepg2, 50 µM
HepG2 [3] = test: Hypolipidemic activity in sodium oleate and sodium palmitate induced human HepG2 cells assessed as decrease in intracellular lipid content at 50 uM by Oil Red O staining based assay; format: functional; set-up: scale not given: the % may be the effect or the level left
HepG2 [4] = test: Hypolipidemic activity in sodium oleate and sodium palmitate induced human HepG2 cells assessed as decrease in intracellular lipid content at 5 uM by Oil Red O staining based assay; format: functional; set-up: scale not given: the % may be the effect or the level left
[5] = target: T1, Pancreatic triacylglycerol lipase (Homo sapiens); test: Inhibition of Pancreatic lipase (unknown origin) using 4-methylumbelleallyl oleate as substrate at 5 uM by microplate reader assay
HepG2 [6] = test: Hypolipidemic activity in sodium oleate and sodium palmitate induced human HepG2 cells assessed as decrease in intracellular lipid content at 0.2 uM by Oil Red O staining based assay; format: functional, cell-based
HepG2 [7] = test: Hypolipidemic activity in sodium oleate and sodium palmitate induced human HepG2 cells assessed as decrease in intracellular lipid content at 0.2 to 50 uM by Oil Red O staining based assay; format: functional, cell-based; conditions: dose 0.2-50 µM
HepG2 [8] = test: Hypolipidemic activity in sodium oleate and sodium palmitate induced human HepG2 cells assessed as decrease in intracellular triglyceride level at 50 uM; format: functional; set-up: scale not given: the % may be the effect or the level left
HepG2 [9] = test: Hypolipidemic activity in sodium oleate and sodium palmitate induced human HepG2 cells assessed as decrease in intracellular triglyceride level at 10 uM; format: functional; set-up: scale not given: the % may be the effect or the level left
HepG2 [10] = test: Hypolipidemic activity in sodium oleate and sodium palmitate induced human HepG2 cells assessed as decrease in intracellular triglyceride level at 5 uM; format: functional; set-up: scale not given: the % may be the effect or the level left
HepG2 [11] = test: Hypolipidemic activity in sodium oleate and sodium palmitate induced human HepG2 cells assessed as decrease in intracellular triglyceride level at 1 uM; format: functional; set-up: scale not given: the % may be the effect or the level left
HepG2 [12] = test: Hypolipidemic activity in sodium oleate and sodium palmitate induced human HepG2 cells assessed as decrease in intracellular triglyceride level at 0.2 uM; format: functional; set-up: scale not given: the % may be the effect or the level left
HepG2 [13] = test: Anti-hyperglycemic activity in 24 hrs serum deprived human HepG2 cells assessed as alleviation in insulin resistance by measuring increase in cellular glucose consumption at 0.2 to 50 uM and measured after 24 hrs by glucose kit anlaysis; format: functional, cell-based; conditions: dose 0.2-50 µM
HepG2 [14] = test: Activation of AMPK signaling pathway in human HepG2 cells assessed as increase in AMPK phosphorylation at 0.2 to 50 uM by Western blot analysis; format: cell-based; conditions: filed as activator, dose 0.2-50 µM
HepG2 [15] = test: Activation of AMPK signaling pathway in human HepG2 cells assessed as increase in ACC phosphorylation at 0.2 to 50 uM by Western blot analysis; format: cell-based; conditions: filed as activator, dose 0.2-50 µM
Mus musculus [16] = test: Hypolipidemic activity in 24hrs fasted tyloxapol induced NAFLD Kunming mouse model assessed as decrease in serum TC level at 50 to 200 mg/kg, IG and measured after 24 hrs by biochemical analysis relative to control; format: functional, organism-based; conditions: dose 50-200 mg/kg
Mus musculus [17] = test: Hypolipidemic activity in 24hrs fasted tyloxapol induced NAFLD Kunming mouse model assessed as decrease in serum TG level at 50 to 200 mg/kg, IG and measured after 24 hrs by biochemical analysis relative to control; format: functional, organism-based; conditions: dose 50-200 mg/kg
Mus musculus [18] = test: Hypolipidemic activity in 24hrs fasted tyloxapol induced NAFLD Kunming mouse model assessed as decrease in serum LDL-C level at 50 to 200 mg/kg, IG and measured after 24 hrs by biochemical analysis relative to control; format: functional, organism-based; conditions: dose 50-200 mg/kg
Mus musculus [19] = test: Hypolipidemic activity in 24hrs fasted tyloxapol induced NAFLD Kunming mouse model assessed as increase in serum HDL-C level at 50 to 200 mg/kg, IG and measured after 24 hrs by biochemical analysis relative to control; format: functional, organism-based; conditions: dose 50-200 mg/kg
Mus musculus [20] = test: Hypolipidemic activity in 24hrs fasted tyloxapol induced NAFLD Kunming mouse model assessed as decrease in hepatic TC level at 50 to 200 mg/kg, IG and measured after 24 hrs by biochemical analysis relative to control; format: functional, organism-based; conditions: dose 50-200 mg/kg
Mus musculus [21] = test: Hypolipidemic activity in 24hrs fasted tyloxapol induced NAFLD Kunming mouse model assessed as decrease in hepatic TG level at 50 to 200 mg/kg, IG and measured after 24 hrs by biochemical analysis relative to control; format: functional, organism-based; conditions: dose 50-200 mg/kg
Mus musculus [22] = test: Hypolipidemic activity in 24hrs fasted tyloxapol induced NAFLD Kunming mouse model assessed as decrease in hepatic LDL-C level at 50 to 200 mg/kg, IG and measured after 24 hrs by biochemical analysis relative to control; format: functional, organism-based; conditions: dose 50-200 mg/kg
Mus musculus [23] = test: Hypolipidemic activity in 24hrs fasted tyloxapol induced NAFLD Kunming mouse model assessed as increase in hepatic HDL-C level at 50 to 200 mg/kg, IG and measured after 24 hrs by biochemical analysis relative to control; format: functional, organism-based; conditions: dose 50-200 mg/kg
Mus musculus [24] = test: Reduction in liver damage in 24hrs fasted tyloxapol induced NAFLD Kunming mouse model assessed as decrease in serum ALT level at 50 to 200 mg/kg, IG and measured after 24 hrs by biochemical analysis relative to control; format: functional, organism-based; conditions: dose 50-200 mg/kg
Mus musculus [25] = test: Reduction in liver damage in 24hrs fasted tyloxapol induced NAFLD Kunming mouse model assessed as decrease in serum AST level at 50 to 200 mg/kg, IG and measured after 24 hrs by biochemical analysis relative to control; format: functional, organism-based; conditions: dose 50-200 mg/kg
Mus musculus [26] = test: Reduction in liver damage in 24hrs fasted tyloxapol induced NAFLD Kunming mouse model assessed as decrease in ALT level in liver at 50 to 200 mg/kg, IG and measured after 24 hrs by biochemical analysis relative to control; format: functional, organism-based; conditions: dose 50-200 mg/kg
Mus musculus [27] = test: Reduction in liver damage in 24hrs fasted tyloxapol induced NAFLD Kunming mouse model assessed as decrease in AST level in liver at 50 to 200 mg/kg, IG and measured after 24 hrs by biochemical analysis relative to control; format: functional, organism-based; conditions: dose 50-200 mg/kg
Mus musculus [28] = test: Reduction in oxidative stress in 24hrs fasted tyloxapol induced NAFLD Kunming mouse model assessed as increase in serum SOD level at 50 to 200 mg/kg, IG and measured after 24 hrs by biochemical analysis relative to control; format: functional, organism-based; conditions: dose 50-200 mg/kg
Mus musculus [29] = test: Reduction in oxidative stress in 24hrs fasted tyloxapol induced NAFLD Kunming mouse model assessed as decrease in hepatic MPO level at 50 to 200 mg/kg, IG and measured after 24 hrs by biochemical analysis relative to control; format: functional, organism-based; conditions: dose 50-200 mg/kg
Mus musculus [30] = test: Amelioration of hepatic lesion in 24hrs fasted tyloxapol induced NAFLD Kunming mouse model assessed as reduction in liver morphology alteration at 50 to 200 mg/kg, IG; format: functional, organism-based; conditions: dose 50-200 mg/kg
Mus musculus [31] = test: Amelioration of hepatic lesion in 24hrs fasted tyloxapol induced NAFLD Kunming mouse model assessed as reduction in liver index at 50 to 200 mg/kg, IG; format: functional, organism-based; conditions: dose 50-200 mg/kg
Mus musculus [32] = test: Amelioration of hepatic lesion in 24hrs fasted tyloxapol induced NAFLD Kunming mouse model assessed as reduction in hepatic steatosis at 50 to 200 mg/kg, IG by H and E staining based analysis; format: functional, organism-based; conditions: dose 50-200 mg/kg
Mus musculus [33] = test: Amelioration of hepatic lesion in 24hrs fasted tyloxapol induced NAFLD Kunming mouse model assessed as reduction in fat deposition at 50 to 200 mg/kg, IG by H and E staining based analysis; format: functional, organism-based; conditions: dose 50-200 mg/kg
Mus musculus [34] = test: Amelioration of hepatic lesion in 24hrs fasted tyloxapol induced NAFLD Kunming mouse model assessed as reduction in hepatic steatosis at 50 to 200 mg/kg, IG by Oil red O staining based analysis; format: functional, organism-based; conditions: dose 50-200 mg/kg
Mus musculus [35] = test: Amelioration of hepatic lesion in 24hrs fasted tyloxapol induced NAFLD Kunming mouse model assessed as reduction in fat deposition at 50 to 200 mg/kg, IG by Oil red O staining based analysis; format: functional, organism-based; conditions: dose 50-200 mg/kg
[36] = Reduction in hepatic inflammation in 24hrs fasted tyloxapol induced NAFLD Kunming mouse model assessed as decrease in IL-6 level in liver at 50 mg/kg, IG and measured after 24 hrs; format: functional; set-up: scale not given: the % may be the effect or the level left
[37] = Reduction in hepatic inflammation in 24hrs fasted tyloxapol induced NAFLD Kunming mouse model assessed as decrease in IL-6 level in liver at 100 mg/kg, IG and measured after 24 hrs; format: functional; set-up: scale not given: the % may be the effect or the level left
[38] = Reduction in hepatic inflammation in 24hrs fasted tyloxapol induced NAFLD Kunming mouse model assessed as decrease in IL-6 level in liver at 200 mg/kg, IG and measured after 24 hrs; format: functional; set-up: scale not given: the % may be the effect or the level left
Mus musculus [39] = test: Hypolipidemic activity in 24hrs fasted tyloxapol induced NAFLD Kunming mouse model assessed as decrease in spleen index at 50 to 200 mg/kg, IG relative to control; format: functional, organism-based; conditions: dose 50-200 mg/kg
Mus musculus [40] = test: Hypolipidemic activity in 24hrs fasted tyloxapol induced NAFLD Kunming mouse model assessed as decrease in epididymis in white adipose tissue at 200 mg/kg, IG relative to control; format: functional, organism-based
Mus musculus [41] = test: In vivo activation of AMPK pathway in 24hrs fasted tyloxapol induced NAFLD Kunming mouse model assessed as increase in AMPK phosphorylation in liver at 200 mg/kg, IG and measured after 24 hrs by Western blot anlaysis; format: functional, organism-based
Mus musculus [42] = test: In vivo activation of AMPK pathway in 24hrs fasted tyloxapol induced NAFLD Kunming mouse model assessed as increase in ACC phosphorylation in liver at 200 mg/kg, IG and measured after 24 hrs by Western blot anlaysis; format: functional, organism-based

O=C(O)CC(=O)OC[C@H]1O[C@@H](Oc2cc(O)c3c(=O)cc(-c4ccc(O)c(O)c4)oc3c2)[C@H](O)[C@@H](O)[C@@H]1O
inhibition [1]: 65.8% | Activity (HepG2 [2]): Non-Toxic | Activity (HepG2 [3]): 57.1% | Activity (HepG2 [4]): 61.5%

O=c1cc(-c2ccc(O)c(O)c2)oc2cc(O)cc(O)c12 [LUTEOLIN]
inhibition [1]: 41.2% | inhibition [5]: 27.4% | Activity (HepG2 [2]): Toxic | Activity (HepG2 [4]): 91.6%

O=C(O)CC(=O)OC[C@H]1O[C@@H](Oc2cc(O)c3c(=O)cc(-c4ccc(O)cc4)oc3c2)[C@H](O)[C@@H](O)[C@@H]1O
inhibition [1]: 47.2% | inhibition [5]: 35% | Activity (HepG2 [2]): Non-Toxic | Activity (HepG2 [3]): 67.3% | Activity (HepG2 [4]): 74.9% | Activity (HepG2 [6]): Active | Activity (HepG2 [7]): Dose-Dependent Effect | Activity (HepG2 [8]): 73% | Activity (HepG2 [9]): 55.1% | Activity (HepG2 [10]): 54.7% | Activity (HepG2 [11]): 52.2% | Activity (HepG2 [12]): 48.6% | Activity (HepG2 [13]): Active | Activity (HepG2 [14]): Active | Activity (HepG2 [15]): Active | Activity (Mus musculus [16]): Active | Activity (Mus musculus [17]): Active | Activity (Mus musculus [18]): Active | Activity (Mus musculus [19]): Active | Activity (Mus musculus [20]): Active | Activity (Mus musculus [21]): Active | Activity (Mus musculus [22]): Active | Activity (Mus musculus [23]): Active | Activity (Mus musculus [24]): Active | Activity (Mus musculus [25]): Active | Activity (Mus musculus [26]): Active | Activity (Mus musculus [27]): Active | Activity (Mus musculus [28]): Active | Activity (Mus musculus [29]): Active | Activity (Mus musculus [30]): Active | Activity (Mus musculus [31]): Active | Activity (Mus musculus [32]): Active | Activity (Mus musculus [33]): Active | Activity (Mus musculus [34]): Active | Activity (Mus musculus [35]): Active | Activity [36]: 23.68% | Activity [37]: 22.44% | Activity [38]: 18.03% | Activity (Mus musculus [39]): Active | Activity (Mus musculus [40]): Active | Activity (Mus musculus [41]): Active | Activity (Mus musculus [42]): Active

O=c1cc(-c2ccc(O)cc2)oc2cc(O)cc(O)c12 [APIGENIN]
inhibition [1]: 56.3% | inhibition [5]: 26.7% | Activity (HepG2 [2]): Toxic | Activity (HepG2 [4]): 92.4%
